Test results as given in article PMC8175350, “Drug repurposing screens identify chemical entities for the development of COVID-19 interventions” (Nature Communications, 2021).
Counter-ions that a name gives are not always drawn. Like-named read-outs stand apart in the source and are kept apart here.

Tests used:
[1] = test system: HepG2; conditions: human
[2] = in vitro; conditions: human
[3] = test system: Calu-3 cells; conditions: for Calu-3 uninfected cytotoxicity Sinf Average: human
[4] = test system: SARS-CoV-2; experiment: microbe, parasite or virus in culture; format: cell-based; conditions: for Emax: Severe acute respiratory syndrome coronavirus 2, HeLa-ACE2, 10 h, read-out: HeLa-ACE2 TOA CoV-2 Sinf Average; for EC50: read-out: HeLa-ACE2 TOA CoV-2 EC50 GeoMean
[5] = test system: Calu-3 cells; experiment: cells; conditions: Homo sapiens; for Emax: Calu-3, 48 h, read-out: Calu-3 cell count Sinf Average; for EC50: Calu-3, read-out: Calu-3 cell count EC50 GeoMean
[6] = test system: HeLa-ACE2 cells; experiment: Uninfected HeLa-ACE2 24 h live/dead cytotoxicity counter screen; format: cell-based, human
[7] = as above; format: cell-based, human; conditions: human, uninfected HeLa-ACE2 cells
[8] = test system: HEK293T; conditions: human
[9] = test system: SARS-CoV-2; experiment: microbe, parasite or virus in culture; format: cell-based
[10] = test system: HeLa-ACE2 cells; experiment: cells; conditions: Homo sapiens; for EC50: HeLa-ACE2, read-out: HeLa-ACE2 cell count EC50 GeoMean; for Emax: HeLa-ACE2, 24 h, read-out: HeLa-ACE2 cell count Sinf Average
[11] = test system: SARS-CoV-2; experiment: microbe, parasite or virus in culture; format: cell-based; conditions: for Emax: Severe acute respiratory syndrome coronavirus 2, Calu-3, 48 h, read-out: Calu-3 CoV-2 Sinf Average
[12] = test system: HeLa-ACE2 cells; experiment: Total cell count in the HeLa-ACE2 TOA assay; format: cell-based; conditions: Homo sapiens; for Emax: HeLa-ACE2, 10 h, curve plateau at infinite concentration, read-out: HeLa-ACE2 TOA cell count Sinf Average; for EC50: HeLa-ACE2, read-out: HeLa-ACE2 TOA cell count EC50 GeoMean
Text: Supplement 41467_2021_23328_MOESM3_ESM.xlsx, sheet "Table S1" | column: HeLa-ACE2 TOA cell count

[13] = test system: HepG2; experiment: HepG2 72 h CellTiter-Glo cytotoxicity; conditions: 72 h
[14] = HEK293T 72 h CellTiter-Glo cytotoxicity; conditions: human, HEK293T cells
[15] = test system: HEK293T; experiment: HEK293T 72 h CellTiter-Glo cytotoxicity; conditions: 72 h
[16] = test system: Calu-3 cells; experiment: Uninfected Calu-3 48 h Cell-Titer Glo cytotoxicity counter screen
[17] = as above; conditions: human, uninfected Calu-3 cells
[18] = HepG2 72 h CellTiter-Glo cytotoxicity; conditions: human, HepG2 cells
[19] = test system: SARS-CoV-2; format: cell-based; conditions: combination with remdesivir, synergy score δ
[20] = Calu-3 uninfected cytotoxicity CC50 GeoMean
[21] = curve plateau at infinite concentration
[22] = Severe acute respiratory syndrome coronavirus 2, HeLa-ACE2
[23] = read-out: HeLa-ACE2 uninfected cytotoxicity CC50 GeoMean
[24] = Severe acute respiratory syndrome coronavirus 2, HeLa-ACE2, 24 h, curve plateau at infinite concentration; read-out: HeLa-ACE2 CoV-2 Sinf Average
[25] = Severe acute respiratory syndrome coronavirus 2, Calu-3, detail column, read-out: Calu-3 CoV-2 EC50 GeoMean
[26] = Severe acute respiratory syndrome coronavirus 2, HeLa-ACE2, detail column; read-out: HeLa-ACE2 CoV-2 EC50 GeoMean
[27] = Severe acute respiratory syndrome coronavirus 2, HeLa-ACE2, detail column
[28] = Severe acute respiratory syndrome coronavirus 2, HeLa-ACE2; read-out: HeLa-ACE2 CoV-2 EC50 GeoMean
[29] = Severe acute respiratory syndrome coronavirus 2, Calu-3, read-out: Calu-3 CoV-2 EC50 GeoMean

Row | Structure (SMILES) | Emax [4, 21] | EC50 [4, 22] | Emax [5] | EC50 [5] | HeLa-ACE2 uninfected cytotoxicity Sinf Average [6, 21] | CC50 at 24 h [7, 23] | Emax [9, 24] | EC50 [10] | Emax [11, 21] | EC50 [11, 25] | Emax [12] | EC50 [12] | HepG2 72-hour cytotoxicity Sinf Average [13] | CC50 at 72 h [14] | HEK293T 72-hour cytotoxicty Sinf Average [15] | Emax [10] | Calu-3 uninfected cytotoxicity Sinf Average [16, 21] | CC50 at 72 h [18] | EC50 [9, 26] | CC50 at 48 h [17, 20] | also measured
1 | Nc1ncnc2c1nc(Cl)n2[C@@H]1O[C@H](CO)[C@@H](O)[C@H]1O [8-Chloroadenosine] | 98% | 1.07 µM | 99% | > 9.98 µM | -87% | > 11.9 µM | 98% | > 9.59 µM | 96% | 4.94 µM | 100% | > 9.59 µM | – | – | – | – | – | – | – | – | HepG2 72-hour cytotoxicity Sinf Average ([1]; 72 h): -69%; CC50 at 48 h ([2]; Calu-3 Uninf. cells CC50 (µM)): > 27.8 µM; CC50 at 48 h [2, 20]: > 27.7 µM; uninfected Calu-3 CC50 [3]: > 27.747 ×÷ 1.135 (n=3) μM; Calu-3 uninfected cytotoxicity Sinf Average ([3]; 48 h): -92%; CC50 at 24 h ([7]; reconfirmed hits, read-out: HeLa-ACE2 Uninf. cells CC50): > 11.9 µM; HEK293T 72-hour cytotoxicty Sinf Average ([8]; 72 h): -98%; EC50 ([9]; Severe acute respiratory syndrome coronavirus 2, HeLa-ACE2, reconfirmed hits; read-out: HeLa-ACE2 SARS-CoV-2 EC50): 0.927 µM; EC50 ([11]; Severe acute respiratory syndrome coronavirus 2, Calu-3, reconfirmed hits, read-out: Calu-3 SARS-CoV-2 EC50): 4.94 µM
2 | CCCCc1oc2ccccc2c1C(=O)c1cc(I)c(OCCN(CC)CC)c(I)c1 [Amiodarone] | – | – | 100% | – | – | – | – | – | – | – | – | – | -100% | 10.9 µM | -100% | 100% | – | – | – | – | Emax [4]: 100%; HeLa-ACE2 uninfected cytotoxicity Sinf Average ([6]; human, uninfected HeLa-ACE2 cells, 24 h): -101%; Emax ([9]; Severe acute respiratory syndrome coronavirus 2, HeLa-ACE2, 24 h, read-out: HeLa-ACE2 CoV-2 Sinf Average): 96%; Emax [11]: 100%
3 | CN1CC2c3ccccc3Oc3ccc(Cl)cc3C2C1 (stereo not shown) [Asenapine maleate] | 100% | – | – | – | -100% | – | 97% | – | 100% | – | – | – | -100% | 23.3 µM | -100% | – | -100% | 19.9 µM | – | – | CC50 at 48 h [17]: > 29.9 µM; CC50 at 24 h ([7]; detail block, read-out: HeLa-ACE2 uninfected cytotoxicity CC50 GeoMean): > 35.6 µM
4 | COc1ccc2c(c1)[C@]1(C[C@H]1c1ccc3c(/C=C/c4ccc(CN5C[C@@H](C)O[C@@H](C)C5)cc4)n[nH]c3c1)C(=O)N2 [CFI-400945] | 100% | 4.57 µM | 100% | 4.75 µM | -100% | 7.18 µM | 100% | > 0.117 µM | 100% | 3.36 µM | 100% | > 9.59 µM | – | – | – | 53% | – | – | > 7 µM | – | HepG2 72-hour cytotoxicity Sinf Average ([1]; 72 h): -100%; CC50 at 48 h [2, 20]: > 19.8 µM; uninfected Calu-3 CC50 [3]: > 19.756 ×÷ 1.816 (n=3) μM; Calu-3 uninfected cytotoxicity Sinf Average ([3]; 48 h): -98%; HEK293T 72-hour cytotoxicty Sinf Average ([8]; 72 h): -95%
5 | C[C@H]1O[C@@H](O[C@H]2[C@@H](O)C[C@H](O[C@H]3[C@@H](O)C[C@H](O[C@H]4CC[C@@]5(C)[C@H](CC[C@@H]6[C@@H]5C[C@@H](O)[C@]5(C)[C@@H](C7=CC(=O)OC7)CC[C@]65O)C4)O[C@@H]3C)O[C@@H]2C)C[C@H](O)[C@@H]1O [Digoxin] | 89% | – | -100% | > 9.95 µM | -98% | 0.12 µM | 100% | 0.325 µM | 83% | – | – | > 9.59 µM | – | – | – | 101% | – | – | – | – | HepG2 72-hour cytotoxicity Sinf Average [1]: -102%; CC50 [2, 20]: > 5.04 µM; Calu-3 uninfected cytotoxicity Sinf Average [3]: -38%; EC50 [4, 27]: 0.792 µM; HEK293T 72-hour cytotoxicty Sinf Average [8]: -101%; EC50 [9, 28]: 0.166 µM; EC50 [11, 29]: 0.169 µM
6 | Cc1ccc(NC(=O)c2ccc(CN3CCN(C)CC3)cc2)cc1Nc1nccc(-c2cccnc2)n1 [Imatinib mesylate] | – | – | 100% | – | – | – | – | – | – | – | – | – | -100% | 15.2 µM | -100% | – | – | 12.9 µM | – | > 29.9 µM | Calu-3 uninfected cytotoxicity Sinf Average ([16]; human, uninfected Calu-3 cells, 48 h): -100%; Emax ([9]; Severe acute respiratory syndrome coronavirus 2, HeLa-ACE2, 24 h; read-out: HeLa-ACE2 CoV-2 Sinf Average): 100%; Emax [11]: 100%
7 | NC1(c2ccc(-c3nc4ccn5c(=O)[nH]nc5c4cc3-c3ccccc3)cc2)CCC1 [MK-2206] | 100% | > 9.39 µM | -100% | > 9.98 µM | -100% | > 22.8 µM | 99% | > 9.59 µM | 82% | > 4.9 µM | – | > 9.59 µM | -100% | 3.88 µM | -102% | – | -100% | 7.59 µM | 1.1 µM | 8.7 µM | HeLa-ACE2 synergy score with remdesivi [δ] [19]: 2.087; EC50 ratio between the standard 24 h and the TOA assay [4]: > 8; SI in Calu-3 [11]: < 2
8 | COc1ccc(C[C@H](N)C(=O)N[C@H]2[C@@H](O)[C@H](n3cnc4c(N(C)C)ncnc43)O[C@@H]2CO)cc1 [Puromycin - cytotoxicity control] | 103% | 0.316 µM | -100% | > 10 µM | -100% | 0.658 µM | 100% | 1.55 µM | 97% | 2.74 µM | – | > 9.62 µM | -101% | 0.829 µM | -101% | 101% | -101% | 1.08 µM | 0.48 µM | 3.95 µM | –
9 | CNC(=O)c1cc(Oc2ccc(NC(=O)Nc3ccc(Cl)c(C(F)(F)F)c3)cc2)ccn1 [Sorafenib] | 99% | – | 100% | > 9.36 µM | -99% | > 8.65 µM | 100% | > 8.31 µM | 100% | – | 100% | > 9.61 µM | -101% | 3.34 µM | -107% | 100% | -88% | 7.15 µM | – | – | CC50 at 48 h [17]: 5.3 µM; EC50 [4, 27]: 3.51 µM; EC50 [9, 28]: > 5.67 µM; EC50 [11, 29]: > 5.2 µM
10 | COc1cc2c(Nc3ccc(Cl)c(Cl)c3F)ncnc2cc1OC[C@@H]1C[C@@H]2CN(C)C[C@@H]2C1 [Tesevatinib, XL647, Kadmon Corporation] | 100% | > 7.61 µM | -100% | > 9.97 µM | -100% | > 20.6 µM | 101% | > 8.16 µM | 100% | 3.32 µM | -100% | > 9.59 µM | -103% | 2.67 µM | -102% | 100% | -105% | 3.15 µM | 2.44 µM | 3.52 µM | –
